Assay [1] relates to lipid peroxidation (brain homogenate). In words: Inhibitory action of lipid peroxidation in brain homogenate (TBA value). It counts as biochemical. To be noted: rat brain homogenate, 37° C., 30 minutes; for pIC50: inhibition of lipid peroxidation. On the procedure:
(1) Inhibitory action of lipid peroxidation (a) Preparation of brain homogenate By use of Wister-strain male rat, brain homogenate was prepared following the procedure as described below. […] Next, a brain perfusion was conducted through the tube with ice-cooled 50 mM phosphate-buffered physiological saline (pH 7.4) hereinafter referred to as "PBS"), and the whole brain was extirpated. After removal of cerebellum, the wet weight of cerebrum was measured and, with addition of 9-fold amount of PBS, it was broken by a Teflon homogenizer in ice-water to be homogenized. After the brain homogenate was subjected to centrifugation at 4° C. at 2200 rpm for 10 minutes, 0.3 ml of the supernatant was apportioned into a light-shielding test tube equipped with a ground stopper, to provide a brain homogenate for evaluation of medicine. (b) Evaluation of test medicine To the brain homogenate produced in (a), 0.6 ml of PBS and 10 μl of ethanolic solution of a test medicine were added (to a final concentration of 500 μM or a concentration at a common ratio of 3 between 0.3 and 100 μm), and the mixture was heated in a warm bath at 37° C. for 30 minutes. […] Also, the same operation was performed by addition of 10 μl of ethanol (blank) in place of 10 μl ethanolic solution of the test medicine for measurement of blank. […] After shaking for about 30 seconds, the mixture was subjected to centrifugation at 3000 rpm for 10 minutes, and the supernatant was provided as a sample for measurement of peroxidized lipid.

The test system of assay [2] is cerebral ischemia recirculation model. Briefly: Protective action in cerebral ischemia recirculation model. In kind it is in vivo, Wistar-strain male rat. Also noted: key to Presence of electroencephalogram restoration / Judgement of action: The case when restoration of electroencephalogram is judged as +; case when not recognized as -. To be noted: 10 mg/kg into duodenum; 10 min cerebral ischemia (Table 3). On the procedure:
(3) Protective action in cerebral ischemia recirculation model
A Wistar-strain male rat weighing about 400 g was administered intramascularly with 0.6 mg of di-tubocurarine to be immobilized and, after a trachea cannulation, the head portion was fixed under artificial respiration on a stereotaxic device. The head skin was cut open, cranial bone was bored, and then bipolar electrode for lead-out of electroencephalogram were placed on the surface of the subdural left frontal cerebral cortex. After the electrode was fixed with the cranial bone by use of dental cement, the animal was held on its back. Next, a cannula for measurement of systemic pressure was placed within the left femoral artery, and a cannula for additional administration of d-tubocurarine within the left femoral vein, respectively. The heart rate was measured and recorded by driving a heart rate meter with the artery wave.
After blood pressure, heart rate and various parameters of electroencephalogram were stabilized, 10 mg/kg of the active ingredient of the present invention prepared in a suspension so as to give 1 ml/kg in 1% tragacanth gum solution was administered directly into duodenum […]. To the control group, only the 1% tragacanth gum solution of the same volume was administered similarly.
Ten to twenty minutes after administration of the medicine, while monitoring the electroencephalogram, blood pressure and heart rate on a multi-purpose monitoring recording device (RM-85 model, produced by Nippon Koden K.K.), the following operations were performed according to the methods shown below for cerebral ischemia loading.
First, ribs were set free at the left costicartilage end to open the chest. Next, cerebral blood flow was blocked for ten minutes by obstructing the left common carotid artery and the left subclavian artery exposed at the aorta originating portion at the same time, and then the brachiocephalic trunk by use of artery clips 30 minutes after administration of the medicine.
Recirculation of cerebral blood flow was effected by releasing at the same time the two artery clips mounted on the respective sites as mentioned above.
The protective action of the medicine for the disorder after recirculation of cerebral ischemia was examined by the presence of restoration of electroencephalogram, and survival time of animal after the recirculation.
During the experiment, the rectal temperature of the animal was maintained at 37° to 38° C. by use of a warming mat. Also, the rectal temperature was continuously drawn on the recorder together with electroencephalogram, femoral artery pressure and heart rate.

Assay [3] deals with drowsy pattern of electroencephalogram induced by phenobarbital or pentobarbital sodium salt. Briefly: Antagonistic action against drowsy pattern of electroencephalogram induced by phenobarbital or pentobarbital sodium salt. It counts as in vivo, Wistar-strain male rat. To be noted: for minimal effective dose: Rattus norvegicus, intravenous, sodium salt, drowsy EEG after PHB 30 mg/kg or PBT 5 mg/kg, read-out: Antagonistic action at dose or higher. The method, then:
(2) Antagonistic action against drowsy pattern of so electroencephalogram induced by phenobarbital or pentobarbital sodium salt
A Wistar-strain male rat weighing about 400 g was intramasculary administered with 0.6 mg of d-tubocurarine to be immobilized and, while maintaining the rectal temperature at 37° to 38° C. under artificial respiration, the electroencephalogram of the left cerebral frontal cortex was measured and recorded. Also, within the left femoral artery and vein, cannulas for measurement of artery pressure and for administration of medicine were placed, respectively.
As the active ingredient of the present invention, sodium salt of the compound represented by Formula (I) was used and the respective doses of said active ingredient and 30 mg/kg of phenobarbital sodium salt (produced by Iwaki Seiyaku K.K.) (hereinafter called "PHB") or 5 mg/kg of pentobarbital sodium salt (hereinafter called PBT) were each dissolved in physiological saline and administered intravenously in a liquid amount of 1 ml/kg.
The action of the active ingredient of the present invention affecting the cortex electroencephalogram after PHB or PBT administration was investigated as follows; Namely, at the time of 5 minutes or later after PHB or PBT administration when increase of the slow-wave component can be clearly recognized on electroencephalogram, 1, 3, 10, 30 and 100 mg/kg of the active ingredient were administered. To the control group 1 ml/kg of physiological saline was intravenously administered.
Recording and analysis of electroencephalogram were continuously drawn together with artery pressure, heart rate and rectal temperature on the recorder through a multi-purpose monitoring recording device (model RM-85, produced by Nippon Koden K.K.). At the same time, electroencephalogram was recorded in data recorder (model A-65, produced by Sony K.K.), and compressed spectral array analysis was conducted by means of a computer for medical data processing (ATAC-450, produced by Nippon Koden K.K.).

pIC50: −log10 of the molar value. Counter-ions that a name gives are not always drawn.

By pIC50 is commonly meant the IC50 on a negative log10 scale, so that one unit is a factor of ten.

On to `CC1=NN(c2ccc(C)c(C)c2)C(=O)C1` [Compound 5], for which the pIC50 in assay [1] was 5.22.

Molecule `CCCCc1ccc(N2N=C(C)CC2=O)cc1` [Compound 7] showed a pIC50 in assay [1] of 5.66.

As for `CC1=NN(c2cccc3ccccc23)C(=O)C1` [Compound 42], in assay [1], the pIC50 was 5.31. Consider `CC1=NN(c2ccc(N)cc2)C(=O)C1` [Compound 50, 1-(4-aminophenyl)-3-methyl-2-pyrazolin-5-one dihydrochloride], for which the pIC50 in assay [1] was 4.49. In assay [1], `CCOC(=O)CC1=NN(c2ccccc2)C(=O)C1` [Compound 36, 3-(Ethoxycarbonylmethyl)-1-phenyl-2-pyrazolin-5-one] had a pIC50 of 4.49.

`CC1=NN(c2cccc(C)c2)C(=O)C1` [Compound 3]: in assay [1], the pIC50 is 5.10. In the case of `CC1=NN(c2ccc(O)cc2)C(=O)C1` [Compound 46], the pIC50 in assay [1] was 4.62.

`CN1N=C(c2ccccc2)CC1=O` [Compound 43] showed a pIC50 in assay [1] of 4.57. `CC1=NN(c2ccccc2O)C(=O)C1` [Compound 44, 1-(2-hydroxyphenyl)-3-methyl-2-pyrazolin-5-one]: in assay [1], the pIC50 is 4.45.

As for `CC1=NN(C2CCCCC2)C(=O)C1` [Compound 40], the pIC50 in assay [1] is 4.61. Also, in assay [2], the “Presence of electroencephalogram restoration” value is reported as “+”.

Molecule `CC1=NN(c2ccc(C)c(Cl)c2)C(=O)C1` [Compound 19] had a pIC50 in assay [1] of 5.39. On to `CC1=NN(c2ccc(Cl)cc2)C(=O)C1` [Compound 16], for which the pIC50 in assay [1] was 5.40. In addition, the “Presence of electroencephalogram restoration” value in assay [2] is “+”.

Consider `CC1=NNC(=O)C1` [Compound 37, 3-Methyl-2-pyrazolin-5-one], for which the “Inhibitory percentage at 500 μM” value in assay [1] came out at 34.3%.

The molecule `CC1=NN(c2ccccc2Cl)C(=O)C1` [Compound 14] gave a pIC50 in assay [1] of 4.01. In the case of `CC1=NN(c2ccccc2)C(=O)C1C` (stereo not drawn) [Compound 30, 3,4-Dimethyl-1-phenyl-2-pyrazolin-5-one], the negative logarithm of the IC50 (pIC50) in assay [1] is 4.69. Also, the “Presence of electroencephalogram restoration” value in assay [2] was “+”.

For the molecule `CSc1cccc(N2N=C(C)CC2=O)c1` [Compound 20], the pIC50 in assay [1] is 5.29. Still for that read-out and setting: as for `CCOC(=O)c1ccc(N2N=C(C)CC2=O)cc1` [Compound 22], the figure is 5.28. `COc1ccc(N2N=C(C)CC2=O)cc1` [Compound 11] gave a pIC50 in assay [1] of 4.68. Besides, the minimal effective dose in assay [3] was at least 10 mg/kg. For the same molecule, the “Presence of electroencephalogram restoration” value in assay [2] is “+”. For the molecule `COc1cccc(N2N=C(C)CC2=O)c1` [Compound 10], the pIC50 in assay [1] is 5.15. Same read-out and setting: as for `CC1=NN(c2ccc(Cl)c(Cl)c2)C(=O)C1` [Compound 17], the figure is 5.80. With `CC1=NN(CCO)C(=O)C1` [Compound 39, 1-(2-Hydroxyethyl)-3-methyl-2-pyrazolin-5-one], the “Inhibitory percentage at 500 μM” value in assay [1] worked out at 39.2%. For the molecule `COc1ccc(N2N=C(C)CC2=O)cc1OC` [Compound 12], the pIC50 in assay [1] was 4.64. For the molecule `CC1=NN(c2ccc(C(=O)O)cc2)C(=O)C1` [Compound 21], the “Inhibitory percentage at 500 μM” value in assay [1] was 34.0%.

For the molecule `CCC1=NN(c2ccccc2)C(=O)C1` [Compound 24, 3-Ethyl-1-phenyl-2-pyrazolin-5-one], the pIC50 in assay [1] was 4.82. In assay [1], `CC1=NN(c2ccccc2)C(=O)C1CC(C)C` (stereo not drawn) [Compound 31, 4-Isobutyl-3-methyl-1-phenyl-2-pyrazolin-5-one] showed a pIC50 of 5.24. Moreover, in assay [3], the minimal effective dose is at least 10 mg/kg. In addition, the “Presence of electroencephalogram restoration” value in assay [2] is recorded as “+”. Turning to `CC1=NN(C)C(=O)C1` [Compound 38, 1,3-Dimethyl-2-pyrazolin-5-one], the “Inhibitory percentage at 500 μM” value in assay [1] is 45.5%. As to `O=C1CC=NN1c1ccccc1` [Compound 51, 1-Phenyl-2-pyrazolin-5-one], the pIC50 in assay [1] was 4.70.

As to `COc1ccccc1N1N=C(C)CC1=O` [Compound 9], the pIC50 in assay [1] is 2.67. Turning to `O=C1C2CCCCC2=NN1c1ccccc1` (stereo not drawn) [Compound 35, 3,3a,4,5,6,7-Hexahydro-2-phenyl-2H-indazol-3-one], in assay [1], the pIC50 is 4.79. Besides, the “Presence of electroencephalogram restoration” value in assay [2] is recorded as “+”. With `CC1=NN(c2ccccc2)C(=O)C1Oc1ccccc1` (stereo not drawn) [Compound 33], the pIC50 in assay [1] was 4.79.

In assay [1], `Cc1ccc(N2N=C(c3ccccc3)CC2=O)cc1` [Compound 27] had a negative-log IC50 (pIC50) of 5.92. In the case of `CC1=NN(c2cccc(O)c2)C(=O)C1` [Compound 45], in assay [1], the pIC50 is 4.67. On the same count and under the same terms, as for `O=C1CC(c2ccccc2)=NN1c1ccc(O)cc1` [Compound 48], the figure is 5.57. `CCOc1ccc(N2N=C(C)CC2=O)cc1` [Compound 13] showed a pIC50 in assay [1] of 4.99. Also, in assay [2], the “Presence of electroencephalogram restoration” value is on record as “+”. In turn, `CC1=NN(c2ccc(O)c(O)c2)C(=O)C1` [Compound 47] had a pIC50 in assay [1] of 5.89. As to `CCC1(c2ccccc2)C(=O)NC(=O)NC1=O` [PHB, phenobarbital sodium salt, reference compound], in assay [3] (PHB 30 mg/kg intravenous), the “persistence of sleep-like electroencephalogram after PHB” value is “at least 3 hours”. For `CC1=NN(c2cccc(Cl)c2)C(=O)C1` [Compound 15], the pIC50 in assay [1] was 5.47. On the same count and under the same terms, with `CC1=NN(c2ccccc2C)C(=O)C1` [Compound 2] the figure was 3.41; with `CC1=NN(c2ccc(F)cc2)C(=O)C1` [Compound 18], 4.92; with `CC1=NN(c2ccccc2)C(=O)C1Sc1ccccc1` (stereo not drawn) [Compound 34], 3.83. On the same count and under the same terms, with `COc1ccc(N2N=C(c3ccccc3)CC2=O)cc1` [Compound 28] the figure was 5.52; with `CC1=NN(Cc2ccccc2)C(=O)C1` [Compound 41], 4.48; with `O=C1CC(c2ccccc2)=NN1c1ccccc1` [Compound 26, 1,3-Diphenyl-2-pyrazolin-5-one], 7.10.

In turn, `CC1=NN(c2ccc([N+](=O)[O-])cc2)C(=O)C1` [Compound 23] showed a pIC50 in assay [1] of 5.29. `CC1=NN(c2ccc(CO)cc2)C(=O)C1` [Compound 49, 1-(4-hydroxymethylphenyl)-3-methyl-2-pyrazolin-5-one] had a pIC50 in assay [1] of 4.29. Still for that read-out and setting: with `O=C1CC(c2ccccc2)=NN1c1ccc(Cl)cc1` [Compound 29] the figure was 5.92; with `CC1=NN(c2cccc(C(F)(F)F)c2)C(=O)C1` [Compound 8], 5.41. As to `CC1=NN(c2ccccc2)C(=O)C1CCO` (stereo not drawn) [Compound 32, 4-(2-Hydroxyethyl)-3-methyl-1-phenyl-2-pyrazolin-5-one], the “Inhibitory percentage at 500 μM” value in assay [1] came to 62.7%.

The values above are taken from patent publication USRE35801E, “Prophylactic and therapeutic composition for circulatory disorders and method of treatment” (priority 1985, dated 1998).
